The target of the assay is T1, PfUCHL3 (Plasmodium falciparum, UniProt Q8IKM8).
T1 construct: gene UCHL3
Description: fluorimetric Ub-AMC deubiquitinase assay with recombinant purified PfUCHL3, dose-response. The assay is classed as biochemical.

Read-outs that look alike come from different tables or passages of the source.

The text below walks through data of publication PMC8766476, “Repurposing the Pathogen Box compounds for identification of potent anti-malarials against blood stages of Plasmodium falciparum with PfUCHL3 inhibitory activity” (Scientific Reports, 2022).

T1 sequence (Q8IKM8 whole entry): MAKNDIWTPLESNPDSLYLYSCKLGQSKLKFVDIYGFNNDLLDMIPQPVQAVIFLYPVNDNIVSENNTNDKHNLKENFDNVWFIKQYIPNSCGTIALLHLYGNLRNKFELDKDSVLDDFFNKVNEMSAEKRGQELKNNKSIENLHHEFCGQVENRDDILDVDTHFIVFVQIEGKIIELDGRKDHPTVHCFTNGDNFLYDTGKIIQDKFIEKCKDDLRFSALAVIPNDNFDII

As for `CC1COC2(CCN(c3nc(=O)c4cc(C(F)(F)F)cc([N+](=O)[O-])c4s3)CC2)O1` (centres unmarked) [compound 1, MMV676603], the IC50 was found to be 25.1 ± 1.8 µM.
As to `Cc1cc2nc(NC(=O)C(C)(C)C)nc(Cl)c2n1Cc1ccc(Cl)cc1` [compound 2, MMV688704], the half-maximal inhibitory concentration (IC50) (read-out: IC50) is 87.1 ± 1.75 µM.

Usually IC50 stands for the concentration needed to halve the response being measured.
